# In patent publication US10597364B2, “Anthelmintic compounds, compositions and method of using thereof” (priority 2015, dated 2020):
# System: Haemonchus contortus
# Assay: Method A: Haemonchus contortus L1 larval development/motility screen in microtitre plate
# Format: cell-based
# Conditions: 96 h, read-out: motility inhibition
row,SMILES,inhibition at 5 µM [%]
1,"O=C(CC1CCCC1)N1CCN(c2ccnc(O[C@H]3CC[C@H](Nc4ccc([N+](=O)[O-])c(C(F)(F)F)c4)CC3)c2)CC1 [Compound 5, 2-cyclopentyl-1-(4-(2-(4-(4-nitro-3-(trifluoromethyl)phenylamino)cyclohexyloxy)pyridin-4-yl)piperazin-1-yl)ethanone]",≥ 90
2,CC(C)(C)OC(=O)N1CCN(c2cncc(O[C@H]3CC[C@H](Nc4ccc(C#N)c(C(F)(F)F)c4)CC3)c2)CC1 [Compound 50],≥ 90
3,CC(C)(C)CN1CCN(c2ccnc(O[C@H]3CC[C@H](Nc4ccc([N+](=O)[O-])c(C(F)(F)F)c4)CC3)c2)CC1 [Compound 84],≥ 90
4,N#Cc1ccc(N[C@H]2CC[C@H](Oc3cncc(N4CCN(C(=O)CC5CCCC5)CC4)c3)CC2)cc1C(F)(F)F [Compound 180],≥ 90
5,"CCCCC(=O)N1CCN(c2cncc(O[C@H]3CC[C@H](Nc4ccc([N+](=O)[O-])c(C(F)(F)F)c4)CC3)c2)CC1 [Compound 19, 1-[4-(5-[[4-[[4-nitro-3-(trifluoromethyl)phenyl]amino]cyclohexyl]oxy]pyridin-3-yl)piperazin-1-yl]pentan-1-one]",≥ 90
6,CCCOC(=O)N1CCN(c2cc(O[C@H]3CC[C@H](Nc4ccc(C#N)c(C(F)(F)F)c4)CC3)ccn2)CC1 [Compound 176],≥ 90
7,O=[N+]([O-])c1ccc(N[C@H]2CC[C@H](Oc3cncc(N4CCN(c5ccc6cc(C(F)(F)F)ccc6n5)CC4)c3)CC2)cc1C(F)(F)F [Compound 90],≥ 90
8,O=[N+]([O-])c1ccc(N[C@H]2CC[C@H](Oc3cncc(N4CCN(C(=S)Nc5ccc(C(F)(F)F)cc5)CC4)c3)CC2)cc1C(F)(F)F [Compound 88],≥ 90
9,O=C(CC1CCCC1)N1CCN(c2ccnc(O[C@H]3CC[C@H](Nc4ccc(S(=O)(=O)C(F)(F)F)cc4)CC3)c2)CC1 [Compound 163],≥ 90
10,CCCOC(=O)N1CCN(c2ccnc(O[C@H]3CC[C@H](Nc4ccc(C#N)c(C(F)(F)F)c4)CC3)c2)CC1 [Compound 74],≥ 90
11,O=C(Nc1ccc(C(F)(F)F)cc1)N1CCN(c2cncc(O[C@H]3CC[C@H](Nc4ccc([N+](=O)[O-])c(C(F)(F)F)c4)CC3)c2)CC1 [Compound 94],≥ 90
12,O=C(CC1CCCC1)N1CCN(c2cncc(O[C@H]3CC[C@H](Nc4ccc(S(=O)(=O)C(F)(F)F)cc4)CC3)c2)CC1 [Compound 193],≥ 90
13,O=C(CC1CCCC1)N1CCN(c2cncc(O[C@H]3CC[C@H](Nc4ccc([N+](=O)[O-])c(C(F)(F)F)c4)CC3)c2)CC1 [Compound 20],≥ 90
14,O=[N+]([O-])c1ccc(N[C@H]2CC[C@H](Oc3cncc(N4CCN(Cc5nc6cc(C(F)(F)F)ccc6s5)CC4)c3)CC2)cc1C(F)(F)F [Compound 62],≥ 90
15,O=[N+]([O-])c1ccc(N[C@H]2CC[C@H](Oc3cncc(N4CCN(S(=O)(=O)C(F)(F)F)CC4)c3)CC2)cc1C(F)(F)F [Compound 63],≥ 90

# System: microfilaria of Dirofilaria immitis
# Assay: Method C: microfilaria of Dirofilaria immitis motility screen
# Format: cell-based
# Conditions: 10 μM, 24 hours, read-out: inhibition of the microfilaria's motility
row,SMILES,inhibition at 10 µM [%]
1,CN(c1ccc([N+](=O)[O-])c(C(F)(F)F)c1)[C@H]1CC[C@H](Oc2ccnc(N3CCN(C(=O)NC(C)(C)C)CC3)c2)CC1 [Compound 132],≥ 90

# Same assay, conditions: 5 ppm, 24 hours, read-out: inhibition of the microfilaria's motility
row,SMILES,inhibition at 5 ppm [%]
1,"CCCNC(=O)N1CCN(c2cccc(O[C@H]3CC[C@H](Nc4ccc([N+](=O)[O-])c(C(F)(F)F)c4)CC3)n2)CC1 [Compound 127, N-propyl-4-(6-[[4-[[4-nitro-3-(trifluoromethyl)phenyl]amino]cyclohexyl]oxy]pyridin-2-yl)piperazine-1-carboxamide]",≥ 90

# Same assay, conditions: 24 h, read-out: inhibition of the microfilaria's motility
SMILES,inhibition at 10 µM [%],inhibition at 5 ppm [%],inhibition at 1 ppm [%]
CCCCC(=O)N1CCN(c2cccc(O[C@H]3CC[C@H](Nc4ccc([N+](=O)[O-])c(C(F)(F)F)c4)CC3)n2)CC1 [Compound 136],≥ 90,,
"O=C(CC1CCCC1)N1CCN(c2ccnc(O[C@H]3CC[C@H](Nc4ccc([N+](=O)[O-])c(C(F)(F)F)c4)CC3)c2)CC1 [Compound 5, 2-cyclopentyl-1-(4-(2-(4-(4-nitro-3-(trifluoromethyl)phenylamino)cyclohexyloxy)pyridin-4-yl)piperazin-1-yl)ethanone]",,≥ 90,
CNC(=O)N1CCN(c2cncc(O[C@H]3CC[C@H](Nc4ccc([N+](=O)[O-])c(C(F)(F)F)c4)CC3)c2)CC1 [Compound 154],≥ 90,,
CCN1CCN(c2cc(O[C@H]3CC[C@H](Nc4ccc([N+](=O)[O-])c(C(F)(F)F)c4)CC3)ccn2)CC1 [Compound 160],≥ 90,,
CC(C)(C)NC(=O)N1CCN(c2cccc(O[C@H]3CC[C@H](Nc4ccc([N+](=O)[O-])c(C(F)(F)F)c4)CC3)n2)CC1 [Compound 150],≥ 90,,
CCNC(=O)N1CCN(c2cccc(O[C@H]3CC[C@H](Nc4ccc([N+](=O)[O-])c(C(F)(F)F)c4)CC3)n2)CC1 [Compound 131],,≥ 90,
CNC(=S)N1CCN(c2ccnc(O[C@H]3CC[C@H](Nc4ccc([N+](=O)[O-])c(C(F)(F)F)c4)CC3)c2)CC1 [Compound 129],,≥ 90,
CC(C)(C)NC(=S)N1CCN(c2cccc(O[C@H]3CC[C@H](Nc4ccc([N+](=O)[O-])c(C(F)(F)F)c4)CC3)n2)CC1 [Compound 116],,≥ 90,
CCNC(=S)N1CCN(c2cccc(O[C@H]3CC[C@H](Nc4ccc([N+](=O)[O-])c(C(F)(F)F)c4)CC3)n2)CC1 [Compound 125],,≥ 90,
CNC(=O)N1CCN(c2ccnc(O[C@H]3CC[C@H](Nc4ccc([N+](=O)[O-])c(C(F)(F)F)c4)CC3)c2)CC1 [Compound 155],≥ 90,,
CCCNC(=S)N1CCN(c2ccnc(O[C@H]3CC[C@H](Nc4ccc([N+](=O)[O-])c(C(F)(F)F)c4)CC3)c2)CC1 [Compound 99],,≥ 90,≥ 90
O=[N+]([O-])c1ccc(N[C@H]2CC[C@H](Oc3ccnc(N4CC5CN(c6ccc(C(F)(F)F)cn6)CC5C4)c3)CC2)cc1C(F)(F)F (some centres unmarked) [Compound 140],≥ 90,,
O=C(Nc1ccc(C(F)(F)F)cc1)N1CCN(c2ccnc(O[C@H]3CC[C@H](Nc4ccc([N+](=O)[O-])c(C(F)(F)F)c4)CC3)c2)CC1 [Compound 138],≥ 90,,
CCCCN1CCN(c2cccc(O[C@H]3CC[C@H](Nc4ccc([N+](=O)[O-])c(C(F)(F)F)c4)CC3)n2)CC1 [Compound 157],≥ 90,,
CCNC(=S)N1CCN(c2cncc(O[C@H]3CC[C@H](Nc4ccc([N+](=O)[O-])c(C(F)(F)F)c4)CC3)c2)CC1 [Compound 124],,≥ 90,
CCCNC(=S)N1CCN(c2cncc(O[C@H]3CC[C@H](Nc4ccc([N+](=O)[O-])c(C(F)(F)F)c4)CC3)c2)CC1 [Compound 119],,≥ 90,
CC(C)(C)OC(=O)N1CCN(c2cc(O[C@H]3CC[C@H](Nc4ccc(C#N)c(C(F)(F)F)c4)CC3)ccn2)CC1 [Compound 151],≥ 90,,
O=[N+]([O-])c1ccc(N[C@H]2CC[C@H](Oc3cncc(N4CCN(C(=S)Nc5ccc(F)cc5)CC4)c3)CC2)cc1C(F)(F)F [Compound 92],,≥ 90,
CCC(=O)N1CCN(c2cccc(O[C@H]3CC[C@H](Nc4ccc([N+](=O)[O-])c(C(F)(F)F)c4)CC3)n2)CC1 [Compound 115],,≥ 90,

SMILES,inhibition at 10 µM [%],inhibition at 5 ppm [%],inhibition at 1 ppm [%]
O=[N+]([O-])c1ccc(N[C@H]2CC[C@H](Oc3cccc(N4CCN(CC5CCCC5)CC4)n3)CC2)cc1C(F)(F)F [Compound 142],≥ 90,,
CNC(=S)N1CCN(c2cccc(O[C@H]3CC[C@H](Nc4ccc([N+](=O)[O-])c(C(F)(F)F)c4)CC3)n2)CC1 [Compound 130],,≥ 90,
O=C(Nc1ccc(C(F)(F)F)cc1)N1CCN(c2cccc(O[C@H]3CC[C@H](Nc4ccc([N+](=O)[O-])c(C(F)(F)F)c4)CC3)n2)CC1 [Compound 139],≥ 90,,
O=[N+]([O-])c1ccc(N[C@H]2CC[C@H](Oc3ccnc(N4CCN(Cc5ccc(C(F)(F)F)cc5)CC4)c3)CC2)cc1C(F)(F)F [Compound 56],,≥ 90,≥ 90
CNC(=S)N1CCN(c2cncc(O[C@H]3CC[C@H](Nc4ccc([N+](=O)[O-])c(C(F)(F)F)c4)CC3)c2)CC1 [Compound 128],,≥ 90,
CC(C)(C)NC(=S)N1CCN(c2cncc(O[C@H]3CC[C@H](Nc4ccc([N+](=O)[O-])c(C(F)(F)F)c4)CC3)c2)CC1 [Compound 91],,≥ 90,
O=C(Cc1cc(C(F)(F)F)cc(C(F)(F)F)c1)N1CCN(c2cc(O[C@H]3CC[C@H](Nc4ccc([N+](=O)[O-])c(C(F)(F)F)c4)CC3)ccn2)CC1 [Compound 137],≥ 90,,
CC(C)(C)OC(=O)N1CCN(c2ncccc2O[C@H]2CC[C@H](Nc3ccc([N+](=O)[O-])c(C(F)(F)F)c3)CC2)CC1 [Compound 121],,≥ 90,
O=S(=O)(c1ccc(N[C@H]2CC[C@H](Oc3cncc(N4CCN(c5ccc(C(F)(F)F)cn5)CC4)c3)CC2)cc1)C(F)(F)F [Compound 195],≥ 90,,
CC(C)(C)OC(=O)N1CCN(c2cc(O[C@H]3CC[C@H](Nc4ccc(S(=O)(=O)C(F)(F)F)cc4)CC3)ccn2)CC1 [Compound 186],≥ 90,,
O=C(Nc1ccc(F)cc1)N1CCN(c2ccnc(O[C@H]3CC[C@H](Nc4ccc([N+](=O)[O-])c(C(F)(F)F)c4)CC3)c2)CC1 [Compound 112],≥ 90,,
CCCOC(=O)N1CCN(c2cc(O[C@H]3CC[C@H](Nc4ccc(S(=O)(=O)C(F)(F)F)cc4)CC3)ccn2)CC1 [Compound 187],≥ 90,,
CCOC(=O)N1CCN(c2cccc(O[C@H]3CC[C@H](Nc4ccc([N+](=O)[O-])c(C(F)(F)F)c4)CC3)n2)CC1 [Compound 110],,≥ 90,
O=[N+]([O-])c1ccc(N[C@H]2CC[C@H](Oc3ccnc(N4CCN(CC(F)(F)F)CC4)c3)CC2)cc1C(F)(F)F [Compound 108],,≥ 90,
O=C(NC1CCCC1)N1CCN(c2cccc(O[C@H]3CC[C@H](Nc4ccc([N+](=O)[O-])c(C(F)(F)F)c4)CC3)n2)CC1 [Compound 147],≥ 90,,
CCCN1CCN(c2cccc(O[C@H]3CC[C@H](Nc4ccc([N+](=O)[O-])c(C(F)(F)F)c4)CC3)n2)CC1 [Compound 158],≥ 90,,
CC(C)(C)NC(=S)N1CCN(c2ccnc(O[C@H]3CC[C@H](Nc4ccc([N+](=O)[O-])c(C(F)(F)F)c4)CC3)c2)CC1 [Compound 93],,≥ 90,
CCCNC(=S)N1CCN(c2cccc(O[C@H]3CC[C@H](Nc4ccc([N+](=O)[O-])c(C(F)(F)F)c4)CC3)n2)CC1 [Compound 120],,≥ 90,
